# Laboratory results published in patent US9832996B2, “Use of sarmentine and its analogues with an herbicide, and compositions thereof” (Marrone Bio Innovations, Inc., priority 2013, dated 2017).
# What was measured:
# Assay type in all cases: in vivo
# Conditions in all cases: 14 days after application
# Agrostis stolonifera [1] = test: Post-emergent spray of sarmentine and paclobutrazol on grass seedlings, fresh weight and Colby synergy
# Description: (§1) Post-emergent effects of sarmentine and paclobutrazol were evaluated on annual bluegrass (Poa annua), Kentucky bluegrass (Poa pratensis), and Creeping Bentgrass (Agrostis stolonifera). For each of the three species tested, fifteen seedlings at the 1-2 leaf stage, in 2.5 cm square pots containing plant growth mix, were sprayed with two suboptimal doses of sarmentine, two suboptimal doses of paclobutrazol, or a factorial combination thereof, as shown in Tables 1-3. A volume of 40 gal/Acre was applied, using a cabinet track sprayer. Negative controls were sprayed with water. Pots were randomly placed in a growth room at 25° C. and 50% relative humidity, and watered as necessary. Treatments were arranged in a 2 k factorial design with three repeat measures and evaluated for fresh weight at 14 days after application. Potential synergy was evaluated by calculating the ratio of observed (E) to expected (Ee) percent of control weight, according to Colby's formula. Colby (1967) Weeds 15:20-22. Percent control was calculated in relation to the untreated control (0% control) with 100% control denoting no living green tissue remaining at 14 days after treatment. An E/Ee score above 1.0 indicates a synergistic interaction between two substances.
# Poa annua [2] = test: as above
# Description: as §1
# Poa pratensis [3] = test: as above
# Description: as §1
# Agrostis stolonifera [4] = test: Post-emergent spray of sarmentine and amicarbazone on grass seedlings, fresh weight and Colby synergy
# Description: as §1, with “and amicarbazone” for “and paclobutrazol”, “pratensis), Perennial ryegrass (Lolium perenne), Tall fescue (Festuca arundinacea)” for “pratensis),”, “the five” for “the three”, “of amicarbazone,” for “of paclobutrazol,”, “Tables 4-8.” for “Tables 1-3.”
# Festuca arundinacea = test: as above
# Description: as §1, with “and amicarbazone” for “and paclobutrazol”, “pratensis), Perennial ryegrass (Lolium perenne), Tall fescue (Festuca arundinacea)” for “pratensis),”, “the five” for “the three”, “of amicarbazone,” for “of paclobutrazol,”, “Tables 4-8.” for “Tables 1-3.”
# Lolium perenne = test: as above
# Description: as §1, with “and amicarbazone” for “and paclobutrazol”, “pratensis), Perennial ryegrass (Lolium perenne), Tall fescue (Festuca arundinacea)” for “pratensis),”, “the five” for “the three”, “of amicarbazone,” for “of paclobutrazol,”, “Tables 4-8.” for “Tables 1-3.”
# Poa annua [5] = test: as above
# Description: as §1, with “and amicarbazone” for “and paclobutrazol”, “pratensis), Perennial ryegrass (Lolium perenne), Tall fescue (Festuca arundinacea)” for “pratensis),”, “the five” for “the three”, “of amicarbazone,” for “of paclobutrazol,”, “Tables 4-8.” for “Tables 1-3.”
# Poa pratensis [6] = test: as above
# Description: as §1, with “and amicarbazone” for “and paclobutrazol”, “pratensis), Perennial ryegrass (Lolium perenne), Tall fescue (Festuca arundinacea)” for “pratensis),”, “the five” for “the three”, “of amicarbazone,” for “of paclobutrazol,”, “Tables 4-8.” for “Tables 1-3.”
# [7] = paclobutrazol 0.042 mg/ml alone
# [8] = paclobutrazol 0.481 mg/ml alone
# [9] = paclobutrazol 0.0467 mg/ml alone
# [10] = paclobutrazol 0.293 mg/ml alone
structure (smiles),measurement,setting,value
CC(C)(C)[C@@H](O)[C@@H](Cc1ccc(Cl)cc1)n1cncn1 (racemic) [Paclobutrazol],% Control,Agrostis stolonifera [1]; [7],0.0%
same,AVG Fresh Weight,Agrostis stolonifera [1]; [7],0.76 g
same,% Control,Agrostis stolonifera [1]; [8],2.3%
same,AVG Fresh Weight,Agrostis stolonifera [1]; [8],0.65 g
same,% Control,Poa annua [2]; paclobutrazol 0.84 mg/ml alone,20.8%
same,AVG Fresh Weight,Poa annua [2]; paclobutrazol 0.84 mg/ml alone,0.48 g
same,% Control,Poa annua [2]; paclobutrazol 1.37 mg/ml alone,7.9%
same,AVG Fresh Weight,Poa annua [2]; paclobutrazol 1.37 mg/ml alone,0.55 g
same,% Control,Poa pratensis [3]; [9],14.2%
same,AVG Fresh Weight,Poa pratensis [3]; [9],0.6 g
same,% Control,Poa pratensis [3]; [10],0.0%
same,AVG Fresh Weight,Poa pratensis [3]; [10],0.7 g
CC(C)c1nn(C(=O)NC(C)(C)C)c(=O)n1N [Amicarbazone],% Control,Agrostis stolonifera [4]; amicarbazone 0.251 mg/ml alone,19.6%
same,AVG Fresh Weight,Agrostis stolonifera [4]; amicarbazone 0.251 mg/ml alone,0.56 g
same,% Control,Agrostis stolonifera [4]; amicarbazone 0.481 mg/ml alone,29.7%
same,AVG Fresh Weight,Agrostis stolonifera [4]; amicarbazone 0.481 mg/ml alone,0.49 g
same,% Control,Festuca arundinacea; amicarbazone 0.315 mg/ml alone,8.1%
same,AVG Fresh Weight,Festuca arundinacea; amicarbazone 0.315 mg/ml alone,2.3 g
same,% Control,Festuca arundinacea; amicarbazone 1.228 mg/ml alone,10.2%
same,AVG Fresh Weight,Festuca arundinacea; amicarbazone 1.228 mg/ml alone,2.2 g
same,% Control,Lolium perenne; amicarbazone 1.03 mg/ml alone,30.9%
same,AVG Fresh Weight,Lolium perenne; amicarbazone 1.03 mg/ml alone,0.96 g
same,% Control,Lolium perenne; amicarbazone 1.903 mg/ml alone,35.7%
same,AVG Fresh Weight,Lolium perenne; amicarbazone 1.903 mg/ml alone,0.89 g
same,% Control,Poa annua [5]; amicarbazone 1.53 mg/ml alone,39.4%
same,Avg Fresh Weight,Poa annua [5]; amicarbazone 1.53 mg/ml alone,0.57 g
same,% Control,Poa annua [5]; amicarbazone 2.79 mg/ml alone,46.0%
same,Avg Fresh Weight,Poa annua [5]; amicarbazone 2.79 mg/ml alone,0.51 g
same,% Control,Poa pratensis [6]; amicarbazone 0.31 mg/ml alone,0.0%
same,AVG Fresh Weight,Poa pratensis [6]; amicarbazone 0.31 mg/ml alone,0.84 g
same,% Control,Poa pratensis [6]; amicarbazone 0.544 mg/ml alone,29.1%
same,AVG Fresh Weight,Poa pratensis [6]; amicarbazone 0.544 mg/ml alone,0.56 g
"CCCCC/C=C/C=C/C(=O)N1CCCC1 [Sarmentine, N-(2E,4E-Decadienoyl) pyrrolidine]",% Control,Agrostis stolonifera [1]; sarmentine 17.43 mg/ml alone,6.4%
same,AVG Fresh Weight,Agrostis stolonifera [1]; sarmentine 17.43 mg/ml alone,0.63 g
same,% Control,Agrostis stolonifera [1]; sarmentine 24.72 mg/ml alone,20.6%
same,AVG Fresh Weight,Agrostis stolonifera [1]; sarmentine 24.72 mg/ml alone,0.53 g
same,% Control,Poa annua [2]; sarmentine 12.47 mg/ml alone,0.0%
same,AVG Fresh Weight,Poa annua [2]; sarmentine 12.47 mg/ml alone,0.71 g
same,% Control,Poa annua [2]; sarmentine 17.114 mg/ml alone,10.0%
same,AVG Fresh Weight,Poa annua [2]; sarmentine 17.114 mg/ml alone,0.54 g
same,% Control,Poa pratensis [3]; sarmentine 19.15 mg/ml alone,11.3%
same,AVG Fresh Weight,Poa pratensis [3]; sarmentine 19.15 mg/ml alone,0.6 g
same,% Control,Poa pratensis [3]; sarmentine 23.553 mg/ml alone,7.5%
same,AVG Fresh Weight,Poa pratensis [3]; sarmentine 23.553 mg/ml alone,0.7 g
same,% Control,Agrostis stolonifera [4]; sarmentine 17.43 mg/ml alone,0.0%
same,AVG Fresh Weight,Agrostis stolonifera [4]; sarmentine 17.43 mg/ml alone,0.59 g
same,% Control,Agrostis stolonifera [4]; sarmentine 24.72 mg/ml alone,30.8%
same,AVG Fresh Weight,Agrostis stolonifera [4]; sarmentine 24.72 mg/ml alone,0.48 g
same,% Control,Festuca arundinacea; sarmentine 10.27 mg/ml alone,28.4%
same,AVG Fresh Weight,Festuca arundinacea; sarmentine 10.27 mg/ml alone,1.8 g
same,% Control,Festuca arundinacea; sarmentine 33.98 mg/ml alone,40.4%
same,AVG Fresh Weight,Festuca arundinacea; sarmentine 33.98 mg/ml alone,1.5 g
same,% Control,Lolium perenne; sarmentine 10 mg/ml alone,17.7%
same,AVG Fresh Weight,Lolium perenne; sarmentine 10 mg/ml alone,1.14 g
same,% Control,Lolium perenne; sarmentine 20 mg/ml alone,10.6%
same,AVG Fresh Weight,Lolium perenne; sarmentine 20 mg/ml alone,1.24 g
same,% Control,Poa annua [5]; sarmentine 12.47 mg/ml alone,10.3%
same,Avg Fresh Weight,Poa annua [5]; sarmentine 12.47 mg/ml alone,0.85 g
same,% Control,Poa annua [5]; sarmentine 17.11 mg/ml alone,23.0%
same,Avg Fresh Weight,Poa annua [5]; sarmentine 17.11 mg/ml alone,0.73 g
same,% Control,Poa pratensis [6]; sarmentine 19.15 mg/ml alone,9.6%
same,AVG Fresh Weight,Poa pratensis [6]; sarmentine 19.15 mg/ml alone,0.72 g
same,% Control,Poa pratensis [6]; sarmentine 23.553 mg/ml alone,9.9%
same,AVG Fresh Weight,Poa pratensis [6]; sarmentine 23.553 mg/ml alone,0.72 g
